Experimental findings from patent US20240109900A1, “AZABICYCLIC SHP2 INHIBITORS” (IRBM S.P.A., priority 2021, published 2024) are described below.

Where two headings read alike, the source gives them in different places.

The subject of test [1] is ERK phosphorylation in KYSE-520 cells. Put plainly: Phospho-ERK cellular assay. The format is cell-based. Conditions: Homo sapiens, read-out: PERK IC50. Put shortly:
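TR-FRET read-out of ERK1/2 Thr202/Tyr204 phosphorylation was taken after overnight antibody incubation at room temperature. Before that, KYSE-520 cells were treated 2 h at 37 °C with compound dilutions and lysed 30 min. Percent inhibition relative to vehicle and cell-free wells was fitted four-parametrically to give IC50.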

The target in test [2] is SHP-2 enzyme (Met1-Leu525) (Homo sapiens (Human), UniProt Q06124). Put plainly: SHP2 inhibition enzymatic assay. In kind it is biochemical. As to conditions: read-out: SHP2wt-IC50. In short, it runs like this: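 SHP-2 (Met1-Leu525), 0.5 nM, activated with 500 nM IRS1 bis-phosphopeptide, preincubated 30 min with compounds in HEPES pH 7.2 buffer with 5 mM DTT. 75 μM DiFMUP added for 30 min at room temperature, stopped with bpV; fluorescence read. IC50 from four-parameter logistic fit of % inhibition.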
Sequence of SHP-2 enzyme (Met1-Leu525) (Q06124 1-525): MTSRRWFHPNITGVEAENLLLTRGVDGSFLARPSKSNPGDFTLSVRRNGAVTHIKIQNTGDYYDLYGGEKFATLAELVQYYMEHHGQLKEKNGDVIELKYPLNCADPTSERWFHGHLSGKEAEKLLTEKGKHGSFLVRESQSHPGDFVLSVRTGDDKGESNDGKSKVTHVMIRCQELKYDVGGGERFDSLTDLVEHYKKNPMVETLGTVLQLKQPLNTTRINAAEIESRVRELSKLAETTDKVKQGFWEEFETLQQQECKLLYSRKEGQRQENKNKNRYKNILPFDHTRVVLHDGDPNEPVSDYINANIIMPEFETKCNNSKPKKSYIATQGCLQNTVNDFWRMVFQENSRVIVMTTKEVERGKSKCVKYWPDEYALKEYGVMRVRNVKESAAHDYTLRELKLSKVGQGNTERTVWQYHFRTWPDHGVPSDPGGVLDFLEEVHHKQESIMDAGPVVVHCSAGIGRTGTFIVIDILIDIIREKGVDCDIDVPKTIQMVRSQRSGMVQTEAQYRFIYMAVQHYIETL

[3] abbreviates: KYSE-520, 2 h, KYSE-520 cells, 2 h at 37° C., phospho-ERK1/2 (Thr202/Tyr204) TR-FRET.
Setting [4] is: 0.5 nM SHP-2 activated by 500 nM IRS1 peptide, 75 μM DiFMUP substrate.

Turning to `COc1ccc(-c2n[nH]c3nc(N4CC[C@@H]5[C@H](C4)[C@@]5(CN)c4cccc(F)c4F)cnc23)c2cccnc12` [Example 183, ((1S,6R,7R)-7-(2,3-difluorophenyl)-3-(3-(8-methoxyquinolin-5-yl)-1H-pyrazolo[3,4-b]pyrazin-6-yl)-3-azabicyclo[4.1.0]heptan-7-yl)methanamine], the concentration for half-maximal inhibition (IC50) (commonly the concentration needed to halve the response being measured) in test [1] (setting [3]) was under 1000 nM; in test [2] (setting [4]) it was under 500 nM.

Consider `Cn1cc2c(Cl)c(-c3n[nH]c4nc(N5C[C@@H]6[C@H](C5)[C@@]6(CN)c5nccs5)cnc34)ccc2n1` [Example 486, ((1R,5S,6r)-3-(3-(4-chloro-2-methyl-2H-indazol-5-yl)-1H-pyrazolo[3,4-b]pyrazin-6-yl)-6-(thiazol-2-yl)-3-azabicyclo[3.1.0]hexan-6-yl)methanamine], for which the results for the IC50 in test [1] (setting [3]) and in test [2] (setting [4]) were under 1000 nM and under 500 nM, respectively.

With `NC[C@]1(c2ccccc2F)[C@@H]2CCN(c3cnc4c(-c5ccc6c(c5)CNC6=O)n[nH]c4n3)C[C@@H]21` [Example 218, 5-(6-((1S,6R,7R)-7-(aminomethyl)-7-(2-fluorophenyl)-3-azabicyclo[4.1.0]heptan-3-yl)-1H-pyrazolo[3,4-b]pyrazin-3-yl)isoindolin-1-one], the values for the IC50 in test [1] (setting [3]) and in test [2] (setting [4]) were under 1000 nM and under 500 nM, respectively.

In the case of `NC[C@]1(c2ccccc2F)[C@@H]2CCN(c3cnc4c(-c5ccc6c(c5)C(=O)NCC6)n[nH]c4n3)C[C@@H]21` [Example 251, 7-(6-((1S,6R,7R)-7-(aminomethyl)-7-(2-fluorophenyl)-3-azabicyclo[4.1.0]heptan-3-yl)-1H-pyrazolo[3,4-b]pyrazin-3-yl)-3,4-dihydroisoquinolin-1(2H)-one], the IC50 in test [1] (setting [3]) was under 1000 nM; in test [2] (setting [4]) it was under 500 nM.

In the case of `NC[C@]1(c2ccccc2F)[C@@H]2CCN(c3cnc4c(-c5cc(F)c6ncccc6c5)n[nH]c4n3)C[C@@H]21` [Example 174, ((1S,6R,7R)-7-(2-fluorophenyl)-3-(3-(8-fluoroquinolin-6-yl)-1H-pyrazolo[3,4-b]pyrazin-6-yl)-3-azabicyclo[4.1.0]heptan-7-yl)methanamine], the IC50 in test [1] (setting [3]) is under 1000 nM; in test [2] (setting [4]), under 500 nM.

`Cn1ccc(-c2n[nH]c3nc(N4CC[C@@H]5[C@H](C4)[C@@]5(CN)c4ccccc4F)cnc23)c(Cl)c1=O` [Example 269, 4-(6-((1S,6R,7R)-7-(aminomethyl)-7-(2-fluorophenyl)-3-azabicyclo[4.1.0]heptan-3-yl)-1H-pyrazolo[3,4-b]pyrazin-3-yl)-3-chloro-1-methylpyridin-2(1H)-one]: the results for the IC50 in test [1] (setting [3]) and in test [2] (setting [4]) were over 5000 nM and under 500 nM, respectively.

Turning to `Cc1nc2cc(-c3n[nH]c4nc(N5CC[C@@H]6[C@H](C5)[C@@]6(CN)c5ccccc5F)cnc34)ccc2[nH]1` [Example 337, ((1S,6R,7R)-7-(2-fluorophenyl)-3-(3-(2-methyl-1H-benzo[d]imidazol-5-yl)-1H-pyrazolo[3,4-b]pyrazin-6-yl)-3-azabicyclo[4.1.0]heptan-7-yl)methanamine], the IC50 in test [1] (setting [3]) was under 1000 nM; in test [2] (setting [4]), under 500 nM.

For `NC[C@]1(c2cc(F)ccc2F)[C@@H]2CCN(c3cnc(Sc4ccnc(N)c4Cl)c(N)n3)C[C@@H]21` [Example 414, 3-((2-amino-3-chloropyridin-4-yl)thio)-6-((1S,6R,7R)-7-(aminomethyl)-7-(2,5-difluorophenyl)-3-azabicyclo[4.1.0]heptan-3-yl)pyrazin-2-amine], the IC50 in test [1] (setting [3]) is under 1000 nM; in test [2] (setting [4]) it was under 500 nM.

As for `Cc1nc([C@@]2(CN)[C@@H]3CN(c4cnc5c(-c6ccc7nn(C)cc7c6Cl)n[nH]c5n4)C[C@@H]32)cs1` [Example 485, ((1R,5S,6r)-3-(3-(4-chloro-2-methyl-2H-indazol-5-yl)-1H-pyrazolo[3,4-b]pyrazin-6-yl)-6-(2-methylthiazol-4-yl)-3-azabicyclo[3.1.0]hexan-6-yl)methanamine], the IC50 was under 1000 nM in test [1] (setting [3]) and under 500 nM in test [2] (setting [4]).

Turning to `Cc1cc(C2(CN)C3CCN(c4nc5[nH]nc(-c6ccc7nc(C)sc7c6Cl)c5nc4C)CC32)no1` (stereo not drawn) [Example 110, (3-(3-(7-chloro-2-methylbenzo[d]thiazol-6-yl)-5-methyl-1H-pyrazolo[3,4-b]pyrazin-6-yl)-7-(5-methylisoxazol-3-yl)-3-azabicyclo[4.1.0]heptan-7-yl)methanamine], the concentration for half-maximal inhibition (IC50) in test [1] (setting [3]) is under 1000 nM; in test [2] (setting [4]), under 500 nM.

In the case of `Cc1nccc(Sc2ccc3nc(N4CC[C@@H]5[C@H](C4)[C@@]5(CN)c4cc(F)ccc4F)cnc3n2)c1F` [Example 426, ((1S,6R,7R)-7-(2,5-difluorophenyl)-3-(6-((3-fluoro-2-methylpyridin-4-yl)thio)pyrido[2,3-b]pyrazin-2-yl)-3-azabicyclo[4.1.0]heptan-7-yl)methanamine], the 50% inhibitory concentration (IC50) in test [1] (setting [3]) is under 1000 nM; in test [2] (setting [4]), under 500 nM.

`Cc1cc([C@@]2(CN)[C@@H]3CCN(c4cnc5c(-c6cccc7c6C(F)(F)C(=O)N7C)n[nH]c5n4)C[C@@H]32)no1` [Example 51, 4-(6-((1S,6R,7S)-7-(aminomethyl)-7-(5-methylisoxazol-3-yl)-3-azabicyclo[4.1.0]heptan-3-yl)-1H-pyrazolo[3,4-b]pyrazin-3-yl)-3,3-difluoro-1-methylindolin-2-one]: the figures for the half-maximal inhibitory concentration (IC50) in test [1] (setting [3]) and in test [2] (setting [4]) were under 1000 nM and under 500 nM, respectively.

Take `COc1ccc(-c2n[nH]c3nc(N4CC[C@@H]5[C@H](C4)[C@@]5(CN)c4ccc(F)cc4F)cnc23)c2cccnc12` [Example 200, ((1S,6R,7R)-7-(2,4-difluorophenyl)-3-(3-(8-methoxyquinolin-5-yl)-1H-pyrazolo[3,4-b]pyrazin-6-yl)-3-azabicyclo[4.1.0]heptan-7-yl)methanamine]: the half-inhibitory concentration (IC50) in test [1] (setting [3]) was under 1000 nM; in test [2] (setting [4]), under 500 nM.

In the case of `Cc1c(-c2n[nH]c3nc(N4CC[C@@H]5[C@H](C4)[C@@]5(CN)c4ccccc4F)cnc23)cnn1C` [Example 348, ((1S,6R,7R)-3-(3-(1,5-dimethyl-1H-pyrazol-4-yl)-1H-pyrazolo[3,4-b]pyrazin-6-yl)-7-(2-fluorophenyl)-3-azabicyclo[4.1.0]heptan-7-yl)methanamine], the IC50 in test [1] (setting [3]) was under 1000 nM; in test [2] (setting [4]), under 500 nM.

Regarding `NC[C@]1(c2ccccc2F)[C@@H]2CCN(c3cnc4c(-c5ccnc(N)n5)n[nH]c4n3)C[C@@H]21` [Example 163, 4-(6-((1S,6R,7R)-7-(aminomethyl)-7-(2-fluorophenyl)-3-azabicyclo[4.1.0]heptan-3-yl)-1H-pyrazolo[3,4-b]pyrazin-3-yl)pyrimidin-2-amine], the half-inhibitory concentration (IC50) is under 1000 nM in test [1] (setting [3]) and under 500 nM in test [2] (setting [4]).

As for `Cn1cc2cc(-c3ccc4nc(N5CC[C@@H]6[C@H](C5)[C@@]6(CN)c5ccccc5F)cnc4n3)ccc2n1` [Example 415, ((1S,6R,7R)-7-(2-fluorophenyl)-3-(6-(2-methyl-2H-indazol-5-yl)pyrido[2,3-b]pyrazin-2-yl)-3-azabicyclo[4.1.0]heptan-7-yl)methanamine], the concentration for half-maximal inhibition (IC50) is under 1000 nM in test [1] (setting [3]) and under 500 nM in test [2] (setting [4]).

For `Cc1cc([C@@]2(CN)[C@@H]3CCN(c4cnc5c(-c6ccc7nn(C)c(C)c7c6Cl)n[nH]c5n4)C[C@@H]32)no1` [Example 108, ((1S,6R,7S)-3-(3-(4-chloro-2,3-dimethyl-2H-indazol-5-yl)-1H-pyrazolo[3,4-b]pyrazin-6-yl)-7-(5-methylisoxazol-3-yl)-3-azabicyclo[4.1.0]heptan-7-yl)methanamine], the half-maximal inhibitory concentration (IC50) in test [1] (setting [3]) is under 1000 nM; in test [2] (setting [4]), under 500 nM.

As for `Cn1cnc2ccc(-c3ccc4nc(N5CC[C@@H]6[C@H](C5)[C@@]6(CN)c5cc(F)ccc5F)cnc4n3)cc21` [Example 527, ((1S,6R,7R)-7-(2,5-difluorophenyl)-3-(6-(1-methyl-1H-benzo[d]imidazol-6-yl)pyrido[2,3-b]pyrazin-2-yl)-3-azabicyclo[4.1.0]heptan-7-yl)methanamine], the values for the half-inhibitory concentration (IC50) in test [1] (setting [3]) and in test [2] (setting [4]) were 1000 to 5000 nM and under 500 nM, respectively.

As to `Cc1csc(C2(CN)C3CCN(c4nc5nc(Sc6ccnc(N)c6Cl)cnc5[nH]4)CC32)n1` (stereo not drawn) [Example 70, 4-((2-(7-(aminomethyl)-7-(4-methylthiazol-2-yl)-3-azabicyclo[4.1.0]heptan-3-yl)-1H-imidazo[4,5-b]pyrazin-5-yl)thio)-3-chloropyridin-2-amine], the half-maximal inhibitory concentration (IC50) is under 1000 nM in test [1] (KYSE-520 cells, 2 h at 37° C., phospho-ERK1/2 (Thr202/Tyr204) TR-FRET) and under 500 nM in test [2].

`Cc1csc(C2(CN)C3CCN(c4cnc5c(-c6ccc(OS(=O)(=O)F)c7ccccc67)n[nH]c5n4)CC32)n1` (stereo not drawn) [Example 103, 4-(6-(7-(aminomethyl)-7-(4-methylthiazol-2-yl)-3-azabicyclo[4.1.0]heptan-3-yl)-1H-pyrazolo[3,4-b]pyrazin-3-yl)naphthalen-1-yl sulfurofluoridate]: the half-inhibitory concentration (IC50) in test [1] (KYSE-520, 2 h) was under 1000 nM; in test [2] (setting [4]), under 500 nM.

Turning to `NC[C@]1(c2ccccc2F)[C@@H]2CCN(c3cnc4c(-c5cccc6[nH]c(=O)ccc56)n[nH]c4n3)C[C@@H]21` [Example 210, 5-(6-((1S,6R,7R)-7-(aminomethyl)-7-(2-fluorophenyl)-3-azabicyclo[4.1.0]heptan-3-yl)-1H-pyrazolo[3,4-b]pyrazin-3-yl)quinolin-2(1H)-one], the IC50 in test [1] (setting [3]) is under 1000 nM; in test [2] (setting [4]) it was under 500 nM.
